In patent US20250382290A1, “SALTS OF SOS1 INHIBITORS” (MIRATI THERAPEUTICS, INC., priority 2022, published 2025) one finds IC50 data, which are given here for 1 compound.

This assay has as its system pERK (KRas-mediated, SOS1-dependent) in MKN1 or H358 cells. Put plainly: cells. The note with it: read-out: IC50 (pERK inhibition).

Experimental: Assay day 1, cells were dosed with the compounds of the invention with a 10 μm starting concentration and serially diluted 3× for a total of 9 concentrations. The cells were incubated for approximately 0.5-1 hour with the compounds solubilized in DMSO at 37° C. Cells were immediately fixed by adding 50 μL of 4% formaldehyde to all wells in a fume hood and the plates were incubated for 20 minutes at room temperature. The formaldehyde was discarded from the plates and 150 μL of ice-cold methanol was added to permeabilize the cells for 10 minutes at −20° C. The methanol was discarded from each of the plates and any liquid remaining in the plate by tapping the plate against paper towels. […] The plates were incubated overnight at 4° C. on a shaker.
On Assay day 2, the primary antibody solution was removed. […] The secondary antibody solution as removed and each plate was washed with PBST 3× times. Any liquid remaining was discarded and the plate was imaged using the Licor Odyssey machine according to the manufacturer's instruction, using a set focus length at 3 mm and both 800 nm and 700 nm filters. The GAPDH normalized scan values for each well were divided by the average of vehicle wells to get the % of pERK inhibition. The IC50 values were then calculated with the Graph pad Prism software.

Take `Cc1c(C#N)cccc1[C@@H](C)Nc1nnc(C)c2cnc(N3CCOCC3)cc12` [Example 12-10, (R)-2-methyl-3-(1-((4-methyl-7-morpholinopyrido[3,4-d]pyridazin-1-yl)amino)ethyl)benzonitrile]: the half-inhibitory concentration (IC50) – broadly, the concentration at which inhibition is half-maximal – is 46 nM.
